Results reported in PMC5700161, “Structure of human immunoproteasome with a reversible and noncompetitive inhibitor that selectively inhibits activated lymphocytes” (Nature Communications, 2017).

Tests used:
[1] = target: T1, β5i in Karpas 1106P cells (Homo sapiens, UniProt P20618+P28062); test: Intracellular β5i activity in Karpas 1106P cells, (Ac-ANW)2-R110; format: cell-based
T1 construct: host or cells: Karpas 1106P
Method: (§1) To determine if this class of inhibitors is cell penetrable, we treated the B-cell lymphoma line Karpas 1106P[28] (expressing a high proportion of i-20S over c-20S) with PKS21221 before incubation with either (Ac-ANW)2-R110 (a specific substrate of β5i) or suc-LLVY-luciferin (a substrate of β5) (Fig. 4a). […] No β5i activity was detected in HepG2 cells using (Ac-ANW)2-R110 as a substrate.
(§2) Cell viability was determined by CellTiter-glo.
(§3) Intracellular proteasomal activity and inhibition assay were performed as reported. Karpas 1106P (80,000 cells per well) were plated and incubated with compound at indicated concentrations for 1 h at 37 °C. The activity of the overall β5 activity including β5i and β5c in each was measured in situ after compound removal with Proteasome-Glo assay kit according to manufacturer’s instructions. Luminescence was recorded on a SpectraMax M5 plate reader. Relative percentage of RLU was used to calculate the IC50s.

[2] = tested on: β5(i+c) in Karpas 1106P cells; test: Intracellular β5(i+c) activity in Karpas 1106P cells, suc-LLVY-luciferin; format: cell-based
Method: To determine if this class of inhibitors is cell penetrable, we treated the B-cell lymphoma line Karpas 1106P[28] (expressing a high proportion of i-20S over c-20S) with PKS21221 before incubation with either (Ac-ANW)2-R110 (a specific substrate of β5i) or suc-LLVY-luciferin (a substrate of β5) (Fig. 4a).
(§4) Fig. 4 Intracellular proteasome inhibition by PKS21221 and its cytotoxicity against transformed cell lines. a Karpas 1106P lymphoma cells (white and black symbols) or HepG2 cells (blue symbols) were treated with PKS21221 for 2 h at the concentrations indicated prior to incubation with substrate (Ac-ANW)2R110 for β5i (Karpas cells) or suc-LLVY-luciferin for β5 (Karpas cells and HepG2 cells). […] Cell viability was determined by CellTiter-glo. Data are means ± SEM of three to four independent experiments

[3] = target: T2, β5c in HepG2 cells (Homo sapiens, UniProt P20618+P28074); test: Intracellular β5c activity in HepG2 cells, suc-LLVY-luciferin; format: cell-based
T2 construct: host or cells: HepG2
Method: as §1, §2, §3

[4] = tested on: HepG2 cells; test: Cytotoxicity, CellTiter-glo, HepG2; settings: read-out: EC50 HepG2, 72 h
Method: as §4
We incubated MM.1S, RPMI 8226, Karpas and HepG2 cells with PKS21221 at different concentrations, and determined cell viability after 72 h (Fig. 4b).
We used Karpas 1106P B lymphoma cell line (Cat. No. 06072607, Aldrich)[15],[16],[52], HepG2 (HB-8065, ATCC), MM.1S (Cat. No. CRL-2974, ATCC). Cells were cultured at 37 °C in a humidified air/5% CO2 atmosphere in medium supplemented with 10% fetal bovine serum, except for the medium for Karpas 1106P cells which contained 20% fetal bovine serum, and 100 units per ml penicillin, 100 μg per ml streptomycin in RPMI 1640 medium. Karpas 1106P was used at 80,000 cells per well, MM.1S at 100,000 cells per well, and HepG2 at 12,000 cells per well. […] Viable cells were counted using Cell-titer Glo assay kit. EC50s were calculated using PRISM (Graphpad).

[5] = tested on: luciferase; test: Luciferase counter-test; format: biochemical; settings: at 100 µM, tested over 0.002–100 µM
[6] = tested on: CD19+CD38+CD27+ ASCs; test: Survival and apoptosis of differentiated antibody-secreting cells (ASCs) from PBMC, Annexin V/7-AAD; format: cell-based, human
Method: (§5) The immunoproteasome plays important roles in T cell differentiation and proliferation and dendritic cell activation and maturation[14],[20],[24]. However, its role in B cell differentiation is not well understood. […] Differentiated ASCs were then exposed to PKS21221 at indicated concentrations and cell survival was determined with Annexin V and 7-aminoactinomycin D (7-AAD) at three-time points (12-h, 24-h, and 48-h after treatment). […] In addition, the cytotoxicity of PKS21221 to different cell populations in PBMC was examined and compared to the cytotoxicity of bortezomib. PBMCs were incubated with PKS21221 or bortezomib, and the viability was assessed in T cells (CD3^+), B cells (CD19^+), monocytes (CD14^+) and dendritic cells (CD3^−CD19^−CD14^−CD16^−CD11c^+HLA-DR^+), respectively (Supplementary Fig. 13b–e).
PBMCs were cultured with or without IL-2/R848 for 5 days, followed by 12-h incubation with PKS21221 at different concentrations. a Representative flow cytometry plots of cells treated with IL-2 and R848 in the presence and absence of PKS21221. […] Annexin V^+7-AAD^− cells were referred as “Early apoptosis” population, and Annexin V^+7-AAD^+ cells were referred as “Dead” population. d Percentage of early apoptotic ASCs (left) and dead ASCs (right), after 12-h incubation with PKS21221.
Human peripheral blood samples were obtained from five different healthy volunteers (BWH Specimen Bank). Peripheral blood mononuclear cells (PBMCs) were isolated by density gradient centrifugation using Lymphoprep (StemCell Technologies). PBMCs were cultured at 1.5 × 10^6 cells per mL in RPMI 1640 media (Lonza), supplemented with 10% human serum (GemCell) (10% HS-RPMI), recombinant human IL-2 10 ng per mL (or 100 U per ml, BioLegend) and R848 1 µg per mL (Cayman Chemicals) for 5 days, at 37 °C, 5% CO2. PKS21221 in DMSO, or DMSO only for control, was added to the culture media on day 5, and cells were incubated for additional 12, 24, and 48 h.

[7] = tested on: CD19+ non-ASCs; test: Apoptosis and viability of CD19+ non-ASCs in ASC differentiation culture; format: cell-based
Method: as §5
PBMCs were cultured with or without IL-2/R848 for 5 days, followed by 12-h incubation with PKS21221 at different concentrations. a Representative flow cytometry plots of cells treated with IL-2 and R848 in the presence and absence of PKS21221. […] Annexin V^+7-AAD^− cells were referred as “Early apoptosis” population, and Annexin V^+7-AAD^+ cells were referred as “Dead” population. d Percentage of early apoptotic ASCs (left) and dead ASCs (right), after 12-h incubation with PKS21221. […]

[8] = target: human β5c (Homo sapiens, UniProt P20618+P28074); test: IC50 determination against human β5c of c-20S
Method: (§6) IC50s of all compounds against β5i and β5c (Table 2) and against β1i, β2i, β1c, and β2c (Supplementary Table 1) were determined following reported methods[8].

[9] = target: β2c (Homo sapiens, UniProt Q99436); test: IC50 against β2c of human constitutive proteasome (Z-VLR-AMC); settings: read-out: IC50 2c - VLR (β2c); substrate Z-VLR-AMC
Method: as §6

Structure (SMILES): Cc1ccc(S(=O)(=O)N[C@@H](CC(=O)NC(C)(C)C)C(=O)NCCNC(=O)c2cc(-c3ccccc3F)ccc2F)cc1 [PKS21221]
- IC50 [1]: 172 ± 33 nM
- IC50 [2]: 118 ± 33 nM
- IC50 [3]: 1830 ± 138 nM
- EC50 [4]: 2320 ± 630 nM
- inhibition of luciferase activity [5]: does not inhibit
- percentage of viable ASC ([6]; 12-h, 24-h, 48-h after treatment): decreased with PKS21221 treatment in a dose- and time-dependent manner
- ASC percentage in ASC differentiating culture ([6]; added for 12 hours on Day 5): decreased the percentage of
- apoptosis of CD19+ non-ASCs [7]: slightly enhanced
- viability of CD19+ non-ASCs [7]: did not affect viability
- Hill coefficient constant, inhibition of β5c [8]: ~ 1
- IC50 ([8]; read-out: IC50 against β5c): 110 nM
- IC50 [9]: > 50000 nM
